According to ChEMBL document CHEMBL4507301 (2021):

What was measured:
[1] = tested on: Tyrosine-protein kinase ABL1 (Homo sapiens), P00519 [H396P]; settings: Compound concentration 1000.0 nM
[2] = target: Activin receptor type-1-like (Homo sapiens) (UniProt P37023); settings: Compound concentration 1000.0 nM
[3] = target: Calcium/calmodulin-dependent protein kinase type 1 (Homo sapiens) (UniProt Q14012); settings: Compound concentration 1000.0 nM
[4] = target: Calcium/calmodulin-dependent protein kinase type II subunit alpha (Homo sapiens) (UniProt Q9UQM7); settings: Compound concentration 1000.0 nM
[5] = target: Calcium/calmodulin-dependent protein kinase type II subunit gamma (Homo sapiens) (UniProt Q13555); settings: Compound concentration 1000.0 nM
[6] = target: Calcium/calmodulin-dependent protein kinase type IV (Homo sapiens) (UniProt Q16566); settings: Compound concentration 1000.0 nM
[7] = target: Dual specificity protein kinase CLK1 (Homo sapiens) (UniProt P49759); settings: Compound concentration 1000.0 nM
[8] = target: Death-associated protein kinase 2 (Homo sapiens) (UniProt Q9UIK4); settings: Compound concentration 1000.0 nM
[9] = target: Serine/threonine-protein kinase DCLK1 (Homo sapiens) (UniProt O15075); settings: Compound concentration 1000.0 nM
[10] = target: Epithelial discoidin domain-containing receptor 1 (Homo sapiens) (UniProt Q08345); settings: Compound concentration 1000.0 nM
[11] = target: Dual specificity tyrosine-phosphorylation-regulated kinase 1B (Homo sapiens) (UniProt Q9Y463); settings: Compound concentration 1000.0 nM
[12] = tested on: Epidermal growth factor receptor (Homo sapiens), P00533 [UNDEFINED MUTATION]; settings: Compound concentration 1000.0 nM
[13] = target: Ephrin type-A receptor 5 (Homo sapiens) (UniProt P54756); settings: Compound concentration 1000.0 nM
[14] = target: Mitogen-activated protein kinase 6 (Homo sapiens) (UniProt Q16659); settings: Compound concentration 1000.0 nM
[15] = target: Tyrosine-protein kinase Fes/Fps (Homo sapiens) (UniProt P07332); settings: Compound concentration 1000.0 nM
[16] = tested on: Receptor-type tyrosine-protein kinase FLT3 (Homo sapiens), P36888 [D835V]; settings: Compound concentration 1000.0 nM
[17] = tested on: Receptor-type tyrosine-protein kinase FLT3 (Homo sapiens), P36888 [UNDEFINED MUTATION]; settings: Compound concentration 1000.0 nM
[18] = target: Serine/threonine-protein kinase LATS1 (Homo sapiens) (UniProt O95835); settings: Compound concentration 1000.0 nM
[19] = target: Tyrosine-protein kinase Lck (Homo sapiens) (UniProt P06239); settings: Compound concentration 1000.0 nM
[20] = target: Mitogen-activated protein kinase kinase kinase 2 (Homo sapiens) (UniProt Q9Y2U5); settings: Compound concentration 1000.0 nM
[21] = target: Tyrosine-protein kinase Mer (Homo sapiens) (UniProt Q12866); settings: Compound concentration 1000.0 nM
[22] = target: Myosin light chain kinase 2, skeletal/cardiac muscle (Homo sapiens) (UniProt Q9H1R3); settings: Compound concentration 1000.0 nM
[23] = target: Serine/threonine-protein kinase Nek10 (Homo sapiens) (UniProt Q6ZWH5); settings: Compound concentration 1000.0 nM
[24] = target: Serine/threonine-protein kinase Nek6 (Homo sapiens) (UniProt Q9HC98); settings: Compound concentration 1000.0 nM
[25] = target: Platelet-derived growth factor receptor alpha (Homo sapiens) (UniProt P16234); settings: Compound concentration 1000.0 nM
[26] = target: Phosphatidylinositol 4-phosphate 5-kinase type-1 gamma (Homo sapiens) (UniProt O60331); settings: Compound concentration 1000.0 nM
[27] = target: Phosphatidylinositol 5-phosphate 4-kinase type-2 gamma (Homo sapiens) (UniProt Q8TBX8); settings: Compound concentration 1000.0 nM
[28] = target: Serine/threonine-protein kinase PknB (Mycobacterium tuberculosis) (UniProt P9WI81); settings: Compound concentration 1000.0 nM
[29] = target: Protein kinase C theta type (Homo sapiens) (UniProt Q04759); settings: Compound concentration 1000.0 nM
[30] = target: Ribosomal protein S6 kinase beta-1 (Homo sapiens) (UniProt P23443); settings: Compound concentration 1000.0 nM
[31] = target: Serine/threonine-protein kinase SIK1 (Homo sapiens) (UniProt P57059); settings: Compound concentration 1000.0 nM
[32] = target: SNF-related serine/threonine-protein kinase (Homo sapiens) (UniProt Q9NRH2); settings: Compound concentration 1000.0 nM
[33] = target: Serine/threonine-protein kinase 33 (Homo sapiens) (UniProt Q9BYT3); settings: Compound concentration 1000.0 nM
[34] = target: Tyrosine-protein kinase SYK (Homo sapiens) (UniProt P43405); settings: Compound concentration 1000.0 nM
[35] = target: Mitogen-activated protein kinase kinase kinase 7 (Homo sapiens) (UniProt O43318); settings: Compound concentration 1000.0 nM
[36] = target: High affinity nerve growth factor receptor (Homo sapiens) (UniProt P04629); settings: Compound concentration 1000.0 nM
[37] = target: NT-3 growth factor receptor (Homo sapiens) (UniProt Q16288); settings: Compound concentration 1000.0 nM
[38] = target: Dual specificity protein kinase TTK (Homo sapiens) (UniProt P33981); settings: Compound concentration 1000.0 nM
[39] = target: Serine/threonine-protein kinase ULK1 (Homo sapiens) (UniProt O75385); settings: Compound concentration 1000.0 nM
[40] = target: Wee1-like protein kinase (Homo sapiens) (UniProt P30291); settings: Compound concentration 1000.0 nM
[41] = target: 5-hydroxytryptamine receptor 1E (Homo sapiens) (UniProt P28566); settings: Compound concentration 10.0 uM
[42] = target: 5-hydroxytryptamine receptor 2A (Homo sapiens) (UniProt P28223); settings: Compound concentration 10.0 uM
[43] = target: D(1A) dopamine receptor (Homo sapiens) (UniProt P21728); settings: Compound concentration 10.0 uM
[44] = target: Histamine H4 receptor (Homo sapiens) (UniProt Q9H3N8); settings: Compound concentration 10.0 uM
[45] = target: Alpha-1D adrenergic receptor (Homo sapiens) (UniProt P25100); settings: Compound concentration 10.0 uM

Calcium/calmodulin-dependent protein kinase type IV (Homo sapiens), sequence (Q16566 whole entry): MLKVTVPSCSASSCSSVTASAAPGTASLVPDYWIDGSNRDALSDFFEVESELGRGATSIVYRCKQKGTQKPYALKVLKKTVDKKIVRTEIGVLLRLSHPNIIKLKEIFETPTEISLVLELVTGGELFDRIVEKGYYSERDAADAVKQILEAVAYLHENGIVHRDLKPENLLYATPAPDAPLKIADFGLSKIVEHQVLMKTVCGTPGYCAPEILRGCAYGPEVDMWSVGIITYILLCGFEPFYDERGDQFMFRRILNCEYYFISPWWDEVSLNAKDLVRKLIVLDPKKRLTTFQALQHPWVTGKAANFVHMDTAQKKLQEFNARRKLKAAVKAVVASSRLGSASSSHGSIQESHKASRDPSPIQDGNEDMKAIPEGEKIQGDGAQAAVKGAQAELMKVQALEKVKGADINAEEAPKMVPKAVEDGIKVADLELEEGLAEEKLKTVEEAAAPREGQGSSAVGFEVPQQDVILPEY
Histamine H4 receptor (Homo sapiens), sequence (Q9H3N8 whole entry): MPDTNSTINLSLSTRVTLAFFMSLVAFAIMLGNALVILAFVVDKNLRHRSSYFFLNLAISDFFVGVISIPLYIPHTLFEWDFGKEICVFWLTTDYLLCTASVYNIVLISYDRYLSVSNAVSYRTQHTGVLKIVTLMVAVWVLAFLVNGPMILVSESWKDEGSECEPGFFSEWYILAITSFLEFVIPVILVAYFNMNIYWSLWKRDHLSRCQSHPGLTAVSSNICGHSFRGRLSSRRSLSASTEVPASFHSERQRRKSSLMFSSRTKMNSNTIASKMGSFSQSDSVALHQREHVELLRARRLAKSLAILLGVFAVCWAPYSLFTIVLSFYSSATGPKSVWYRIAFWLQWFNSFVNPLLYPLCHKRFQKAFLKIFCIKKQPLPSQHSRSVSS
Wee1-like protein kinase (Homo sapiens), sequence (P30291 whole entry, looked up): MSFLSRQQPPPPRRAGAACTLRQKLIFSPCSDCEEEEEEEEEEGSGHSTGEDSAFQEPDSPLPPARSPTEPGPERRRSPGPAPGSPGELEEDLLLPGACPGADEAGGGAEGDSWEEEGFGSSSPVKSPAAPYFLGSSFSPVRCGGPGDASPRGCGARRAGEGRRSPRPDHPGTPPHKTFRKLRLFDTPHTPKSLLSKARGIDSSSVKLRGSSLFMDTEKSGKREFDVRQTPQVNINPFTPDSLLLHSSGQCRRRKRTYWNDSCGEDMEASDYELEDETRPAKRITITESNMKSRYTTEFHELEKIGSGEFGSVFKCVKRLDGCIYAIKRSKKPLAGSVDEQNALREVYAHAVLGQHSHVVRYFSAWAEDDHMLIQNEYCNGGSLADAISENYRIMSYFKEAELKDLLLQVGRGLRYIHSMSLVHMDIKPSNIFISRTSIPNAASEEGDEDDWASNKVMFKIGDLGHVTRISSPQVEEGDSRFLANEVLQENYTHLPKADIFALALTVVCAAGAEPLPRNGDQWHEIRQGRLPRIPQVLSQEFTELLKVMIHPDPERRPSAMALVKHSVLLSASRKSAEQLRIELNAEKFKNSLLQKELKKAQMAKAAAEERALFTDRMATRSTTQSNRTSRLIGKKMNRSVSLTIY
Death-associated protein kinase 2 (Homo sapiens), sequence (Q9UIK4 whole entry, looked up): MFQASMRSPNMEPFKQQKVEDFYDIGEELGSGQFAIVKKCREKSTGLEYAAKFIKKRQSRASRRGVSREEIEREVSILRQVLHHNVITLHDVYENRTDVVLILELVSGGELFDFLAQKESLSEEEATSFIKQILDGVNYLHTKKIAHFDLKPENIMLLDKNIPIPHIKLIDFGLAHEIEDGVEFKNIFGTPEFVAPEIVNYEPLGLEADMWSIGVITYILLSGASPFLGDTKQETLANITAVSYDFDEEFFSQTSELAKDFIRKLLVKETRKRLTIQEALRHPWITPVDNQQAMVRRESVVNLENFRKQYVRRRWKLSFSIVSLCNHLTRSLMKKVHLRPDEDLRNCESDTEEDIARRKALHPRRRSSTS
Mitogen-activated protein kinase 6 (Homo sapiens), sequence (Q16659 whole entry): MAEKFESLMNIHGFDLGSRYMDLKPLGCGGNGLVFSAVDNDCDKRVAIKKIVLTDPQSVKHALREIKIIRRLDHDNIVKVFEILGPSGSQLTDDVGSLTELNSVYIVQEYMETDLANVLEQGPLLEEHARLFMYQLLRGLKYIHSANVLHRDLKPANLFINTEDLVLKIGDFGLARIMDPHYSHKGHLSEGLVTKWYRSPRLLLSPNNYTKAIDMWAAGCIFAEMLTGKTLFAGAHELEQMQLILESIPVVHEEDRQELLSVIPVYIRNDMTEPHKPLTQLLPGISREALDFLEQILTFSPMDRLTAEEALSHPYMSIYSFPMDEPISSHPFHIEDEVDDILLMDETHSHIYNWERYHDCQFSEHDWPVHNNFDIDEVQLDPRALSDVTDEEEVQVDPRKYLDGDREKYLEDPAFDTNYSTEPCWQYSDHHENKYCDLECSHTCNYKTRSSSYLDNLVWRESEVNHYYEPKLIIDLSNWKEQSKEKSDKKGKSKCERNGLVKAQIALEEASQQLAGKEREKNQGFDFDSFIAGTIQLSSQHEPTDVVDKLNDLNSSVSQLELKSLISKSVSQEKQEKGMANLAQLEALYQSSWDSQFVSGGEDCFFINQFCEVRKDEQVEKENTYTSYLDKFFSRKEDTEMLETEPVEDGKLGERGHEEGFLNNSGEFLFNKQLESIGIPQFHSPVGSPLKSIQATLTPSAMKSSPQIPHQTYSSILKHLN
Serine/threonine-protein kinase Nek10 (Homo sapiens), sequence (Q6ZWH5 whole entry): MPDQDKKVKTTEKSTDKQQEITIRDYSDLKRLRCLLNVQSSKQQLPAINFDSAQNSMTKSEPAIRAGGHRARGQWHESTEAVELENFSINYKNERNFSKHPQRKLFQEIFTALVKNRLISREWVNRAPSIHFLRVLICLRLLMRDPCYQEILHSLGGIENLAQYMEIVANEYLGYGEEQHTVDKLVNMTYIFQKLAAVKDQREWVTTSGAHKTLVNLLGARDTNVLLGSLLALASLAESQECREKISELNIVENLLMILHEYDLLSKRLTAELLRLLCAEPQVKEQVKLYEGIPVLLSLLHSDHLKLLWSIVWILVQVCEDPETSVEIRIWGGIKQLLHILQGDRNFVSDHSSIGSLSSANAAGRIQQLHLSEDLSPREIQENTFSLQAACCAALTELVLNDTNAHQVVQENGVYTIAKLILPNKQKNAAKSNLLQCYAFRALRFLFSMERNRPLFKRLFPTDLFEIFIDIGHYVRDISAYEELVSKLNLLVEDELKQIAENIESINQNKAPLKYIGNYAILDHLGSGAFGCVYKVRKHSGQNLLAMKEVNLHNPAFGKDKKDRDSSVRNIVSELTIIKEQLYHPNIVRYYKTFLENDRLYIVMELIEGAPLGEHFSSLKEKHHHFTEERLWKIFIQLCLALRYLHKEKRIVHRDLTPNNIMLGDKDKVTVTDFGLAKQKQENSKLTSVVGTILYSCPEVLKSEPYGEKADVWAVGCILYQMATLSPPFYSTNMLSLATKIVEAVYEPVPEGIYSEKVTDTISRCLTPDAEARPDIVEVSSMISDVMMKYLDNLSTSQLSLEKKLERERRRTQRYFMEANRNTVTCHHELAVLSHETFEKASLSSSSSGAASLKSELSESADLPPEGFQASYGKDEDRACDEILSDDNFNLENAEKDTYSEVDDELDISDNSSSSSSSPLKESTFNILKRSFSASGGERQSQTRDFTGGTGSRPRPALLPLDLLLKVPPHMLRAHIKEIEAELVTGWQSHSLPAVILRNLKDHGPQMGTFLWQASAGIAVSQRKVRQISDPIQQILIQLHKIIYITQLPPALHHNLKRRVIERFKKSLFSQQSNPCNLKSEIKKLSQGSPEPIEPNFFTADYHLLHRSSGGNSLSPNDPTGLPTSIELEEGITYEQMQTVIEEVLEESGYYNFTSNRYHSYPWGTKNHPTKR
Mitogen-activated protein kinase kinase kinase 2 (Homo sapiens), sequence (Q9Y2U5 whole entry): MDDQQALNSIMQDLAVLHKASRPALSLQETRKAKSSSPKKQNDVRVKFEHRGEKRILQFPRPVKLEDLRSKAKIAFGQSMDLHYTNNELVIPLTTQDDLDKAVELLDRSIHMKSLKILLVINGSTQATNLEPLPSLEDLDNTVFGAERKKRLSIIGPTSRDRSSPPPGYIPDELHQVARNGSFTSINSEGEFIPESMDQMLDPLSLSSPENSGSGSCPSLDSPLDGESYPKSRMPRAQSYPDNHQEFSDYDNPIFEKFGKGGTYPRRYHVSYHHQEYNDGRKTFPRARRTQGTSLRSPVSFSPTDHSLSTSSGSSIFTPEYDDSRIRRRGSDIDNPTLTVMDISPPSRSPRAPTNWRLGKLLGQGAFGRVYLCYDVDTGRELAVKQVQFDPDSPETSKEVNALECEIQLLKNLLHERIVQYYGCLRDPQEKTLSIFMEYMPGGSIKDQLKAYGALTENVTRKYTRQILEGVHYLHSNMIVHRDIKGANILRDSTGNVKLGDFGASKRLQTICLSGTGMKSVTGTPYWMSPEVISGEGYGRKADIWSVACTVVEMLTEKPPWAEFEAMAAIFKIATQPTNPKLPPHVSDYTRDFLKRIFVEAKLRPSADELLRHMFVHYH
Phosphatidylinositol 5-phosphate 4-kinase type-2 gamma (Homo sapiens), sequence (Q8TBX8 whole entry): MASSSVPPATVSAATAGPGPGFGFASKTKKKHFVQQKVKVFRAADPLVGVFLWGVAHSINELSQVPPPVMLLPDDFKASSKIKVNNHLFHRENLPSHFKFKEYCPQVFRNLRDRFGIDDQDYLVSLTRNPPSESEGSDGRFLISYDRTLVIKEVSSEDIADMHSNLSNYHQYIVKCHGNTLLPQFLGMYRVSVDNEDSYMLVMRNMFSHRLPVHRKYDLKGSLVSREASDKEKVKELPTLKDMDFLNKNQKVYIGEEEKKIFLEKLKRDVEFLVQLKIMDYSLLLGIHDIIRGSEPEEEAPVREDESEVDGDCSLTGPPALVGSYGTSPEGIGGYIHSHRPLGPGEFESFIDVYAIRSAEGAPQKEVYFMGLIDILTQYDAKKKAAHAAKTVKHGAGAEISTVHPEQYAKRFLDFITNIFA

Structure (SMILES): C[C@H](c1cccc(C#N)c1)n1cc(Cl)cc(C(N)=O)c1=N [(R)-9s]
- residual activity [1]: 79%
- residual activity [2]: 93%
- residual activity [3]: 100%
- residual activity [4]: 100%
- residual activity [5]: 100%
- residual activity [6]: 90%
- residual activity [7]: 100%
- residual activity [8]: 100%
- residual activity [9]: 76%
- residual activity [10]: 98%
- residual activity [11]: 63%
- residual activity [12]: 97%
- residual activity [13]: 96%
- residual activity [14]: 0%
- residual activity [15]: 53%
- residual activity [16]: 89%
- residual activity [17]: 100%
- residual activity [18]: 74%
- residual activity [19]: 100%
- residual activity [20]: 100%
- residual activity [21]: 96%
- residual activity [22]: 100%
- residual activity [23]: 99%
- residual activity [24]: 94%
- residual activity [25]: 94%
- residual activity [26]: 99%
- residual activity [27]: 100%
- residual activity [28]: 89%
- residual activity [29]: 97%
- residual activity [30]: 100%
- residual activity [31]: 100%
- residual activity [32]: 100%
- residual activity [33]: 92%
- residual activity [34]: 100%
- residual activity [35]: 77%
- residual activity [36]: 100%
- residual activity [37]: 96%
- residual activity [38]: 66%
- residual activity [39]: 78%
- residual activity [40]: 100%
- inhibition [41]: -3.17%
- inhibition [42]: 12.3%
- inhibition [43]: 1.16%
- inhibition [44]: -2.33%
- inhibition [45]: 93.3%

Structure (SMILES): C[C@@H](c1cccc(C#N)c1)n1cc(Cl)cc(C(N)=O)c1=N [(S)-9s]
- residual activity [1]: 76%
- residual activity [2]: 80%
- residual activity [3]: 100%
- residual activity [4]: 100%
- residual activity [5]: 100%
- residual activity [6]: 82%
- residual activity [7]: 100%
- residual activity [8]: 100%
- residual activity [9]: 98%
- residual activity [10]: 88%
- residual activity [11]: 37%
- residual activity [12]: 90%
- residual activity [13]: 96%
- residual activity [14]: 100%
- residual activity [15]: 77%
- residual activity [16]: 95%
- residual activity [17]: 96%
- residual activity [18]: 69%
- residual activity [19]: 90%
- residual activity [20]: 100%
- residual activity [21]: 82%
- residual activity [22]: 100%
- residual activity [23]: 91%
- residual activity [24]: 79%
- residual activity [25]: 100%
- residual activity [26]: 100%
- residual activity [27]: 85%
- residual activity [28]: 100%
- residual activity [29]: 86%
- residual activity [30]: 100%
- residual activity [31]: 96%
- residual activity [32]: 100%
- residual activity [33]: 100%
- residual activity [34]: 96%
- residual activity [35]: 100%
- residual activity [36]: 100%
- residual activity [37]: 0%
- residual activity [38]: 100%
- residual activity [39]: 72%
- residual activity [40]: 100%
- inhibition [41]: -1.72%
- inhibition [42]: 5.24%
- inhibition [43]: -6.15%
- inhibition [44]: 0.47%
- inhibition [45]: 60.5%
